Assay results taken from the supplement of paper PMC13380429.

Key:
Details in all cases: 72 h
[1] = tested on: Vero E6; experiment: drug sensitivity score (DSS) for viability; higher = more toxic; extreme values may be limits of the assay
[2] = tested on: Calu-3; experiment: as above
[3] = tested on: U2OS; experiment: as above
[4] = tested on: Caco-2; experiment: as above
[5] = tested on: HepG2; experiment: as above
[6] = tested on: Vero E6; experiment: cell viability relative to DMSO; higher = less toxic
[7] = tested on: Calu-3; experiment: as above
[8] = tested on: U2OS; experiment: as above
[9] = tested on: Caco-2; experiment: as above
[10] = tested on: HepG2; experiment: as above
[11] = tested on: Vero E6; experiment: relative viability EC50 (midpoint between 100% and the lowest measured viability); higher = less toxic
[12] = tested on: Calu-3; experiment: as above
[13] = tested on: U2OS; experiment: as above
[14] = tested on: Caco-2; experiment: as above
[15] = tested on: HepG2; experiment: as above

| SMILES | drug sensitivity score [1] | drug sensitivity score [2] | drug sensitivity score [3] | drug sensitivity score [4] | drug sensitivity score [5] | cell viability ([6]; 1 nM) [%] | cell viability ([6]; 10 nM) [%] | cell viability ([6]; 100 nM) [%] | cell viability ([6]; 1000 nM) [%] | cell viability ([6]; 10000 nM) [%] | cell viability ([7]; 1 nM) [%] | cell viability ([7]; 10 nM) [%] | cell viability ([7]; 100 nM) [%] | cell viability ([7]; 1000 nM) [%] | cell viability ([7]; 10000 nM) [%] | cell viability ([8]; 1 nM) [%] | cell viability ([8]; 10 nM) [%] | cell viability ([8]; 100 nM) [%] | cell viability ([8]; 1000 nM) [%] | cell viability ([8]; 10000 nM) [%] | cell viability ([9]; 1 nM) [%] | cell viability ([9]; 10 nM) [%] | cell viability ([9]; 100 nM) [%] | cell viability ([9]; 1000 nM) [%] | cell viability ([9]; 10000 nM) [%] | cell viability ([10]; 1 nM) [%] | cell viability ([10]; 10 nM) [%] | cell viability ([10]; 100 nM) [%] | cell viability ([10]; 1000 nM) [%] | cell viability ([10]; 10000 nM) [%] | relative viability EC50 [11] [µM] | relative viability EC50 [12] [µM] | relative viability EC50 [13] [µM] | relative viability EC50 [14] [µM] | relative viability EC50 [15] [µM] |
| --- | --- | --- | --- | --- | --- | --- | --- | --- | --- | --- | --- | --- | --- | --- | --- | --- | --- | --- | --- | --- | --- | --- | --- | --- | --- | --- | --- | --- | --- | --- | --- | --- | --- | --- | --- |
| CCCN1CCCC[C@H]1C(=O)Nc1c(C)cccc1C [ropivacaine] | 0 | 0 | 0 | 0 | 0 | 103 | 103 | 98.3 | 98.7 | 98.1 | 107 | 106 | 90.7 | 103 | 97.5 | 96.6 | 97.9 | 92.2 | 99 | 97.4 | 90.8 | 101 | 92.6 | 102 | 95.3 | 96.5 | 96.7 | 89.2 | 95.6 | 99.4 | > 10 | > 10 | > 10 | > 10 | > 10 |
| O=C(/C=C/c1ccc(O)c(O)c1)O[C@H](Cc1ccc(O)c(O)c1)C(=O)O [rosmarinic-acid] | 0 | 0.4 | 0 | 0 | 0 | 102 | 103 | 99.1 | 96.4 | 99.6 | 105 | 109 | 101 | 88.5 | 94.5 | 101 | 103 | 94.8 | 104 | 98.6 | 91.5 | 102 | 87.7 | 99.1 | 88 | 98.8 | 111 | 106 | 96.7 | 102 | > 10 | > 10 | > 10 | > 10 | > 10 |
| OCc1ccccc1O [salicyl-alcohol] | 0 | 0 | 0 | 0 | 0 | 98.8 | 104 | 95.5 | 105 | 110 | 95.5 | 109 | 108 | 94.2 | 96.9 | 103 | 95.4 | 101 | 94.4 | 98.6 | 101 | 97.3 | 111 | 107 | 102 | 104 | 98.2 | 85.7 | 105 | 94.2 | > 10 | > 10 | > 10 | > 10 | > 10 |
| CC(C)=CCC/C(C)=C/CC/C(C)=C/CSc1ccccc1C(=O)O [salirasib] | 0 | 0 | 0 | 0 | 0 | 95.8 | 103 | 97.2 | 97.4 | 97.3 | 104 | 99.6 | 101 | 103 | 99.2 | 102 | 97.3 | 98 | 96.6 | 97.9 | 93.4 | 97.8 | 98.9 | 96.3 | 92.6 | 98.5 | 98.7 | 93.9 | 98.5 | 94.8 | > 10 | > 10 | > 10 | > 10 | > 10 |
| O=C(Oc1ccccc1C(=O)O)c1ccccc1O [sasapyrine] | 0.4 | 0 | 0 | 2.6 | 0 | 110 | 99.9 | 102 | 88.3 | 89.8 | 87.8 | 108 | 100 | 100 | 93 | 100 | 98.6 | 101 | 97.2 | 94.9 | 106 | 95.3 | 90.3 | 82.8 | 81.9 | 93.1 | 86.4 | 100 | 91.7 | 105 | > 10 | > 10 | > 10 | > 10 | > 10 |
| CC(NC(=O)c1ccccc1/N=C/c1c(O)ccc2ccccc12)c1ccccc1 (stereo not given) [sirtinol] | 0 | 0 | 0 | 0 | 0 | 97.1 | 91.2 | 93 | 92.4 | 101 | 96.5 | 97.6 | 104 | 112 | 104 | 96.8 | 102 | 96.1 | 101 | 103 | 93.6 | 97.8 | 101 | 105 | 110 | 101 | 106 | 90.7 | 96.9 | 100 | > 10 | > 10 | > 10 | > 10 | > 10 |
| CCCCCCCCCCCCCCCCCC(=O)OC[C@@H](O)[C@H]1OC[C@H](O)[C@H]1O [sorbitan-monostearate] | 0 | 0 | 0 | 0 | 0 | 99.5 | 102 | 97.2 | 100 | 101 | 101 | 92.9 | 94.1 | 108 | 101 | 102 | 102 | 101 | 107 | 99.9 | 92.1 | 104 | 87.4 | 100 | 98.7 | 93.7 | 89.2 | 98.7 | 102 | 108 | > 10 | > 10 | > 10 | > 10 | > 10 |
